Results on 61 molecules are retold here after patent US7538073B2, “Pyrazoylcarboxanilides as fungicides” (Bayer CropScience AG, priority 2001, dated 2009).

Usually chromatographic logP stands for a lipophilicity value derived from retention on a column. Higher therefore signals higher lipophilicity.

System in the first series: not listed separately
The experiment in a line: logP by HPLC, reversed-phase column (C 18), EEC Directive 79/831 Annex V.A8. The settings on record: reversed-phase HPLC column (C 18), acidic range pH 2.3, 0.1% aqueous phosphoric acid/acetonitrile gradient, 43° C. The series is classed as physicochemical. As for the experimental part: The logP values given in the preparation examples and tables above are determined in accordance with EEC Directive 79/831 Annex V.A8 by HPLC (High Performance Liquid Chromatography) using a reversed-phase column (C 18). Temperature: 43° C. The determination is carried out in the acidic range at pH 2.3 using the mobile phases 0.1% aqueous phosphoric acid and acetonitrile; linear gradient from 10% acetonitrile to 90% acetonitrile. The calibration is carried out using unbranched alkan-2-ones (having 3 to 16 carbon atoms), with known logP values (determination of the logp values by the retention times using linear interpolation between two successive alkanones).
Regarding `Cc1nn(C)c(F)c1C(=O)Nc1ccccc1C(C)C1CCCCC1` (stereo not shown) [Example I-42], the chromatographic logP was found to be 3.82.
Regarding `C=Cc1ccccc1NC(=O)c1c(C)nn(C)c1F` [Example I-20], the chromatographic logP is 1.92.
For `CCCCCC(C)(O)c1ccccc1NC(=O)c1c(C)nn(C)c1F` (stereo not shown) [IV-3], the chromatographic logP came to 3.13.
As for `CCCC(C)(O)c1ccccc1NC(=O)c1c(C)nn(C)c1F` (stereo not shown) [IV-2], the chromatographic logP was 2.4.
Still for that read-out and setting: for `CCC(c1ccccc1NC(=O)c1c(C)nn(C)c1F)C(C)C` (stereo not shown) [Example I-38] the value was 3.37.
On to `CCCC(C)c1cccc(F)c1NC(=O)c1c(C)nn(C)c1F` (stereo not shown) [Example I-50], for which the chromatographic logP turned out to be 2.86.
Same read-out and setting: for `Cc1nn(C)c(F)c1C(=O)Nc1ccccc1C=CC1CC1(F)F` (stereo not shown) [Example 4, N-{2-[2-(2,2-difluorocyclopropyl)ethenyl]-phenyl}-5-fluoro-1,3-dimethyl-1H-pyrazol-4-carboxamide] the value was 2.59.
On the same count and under the same terms, for `Cc1nn(C)c(F)c1C(=O)Nc1ccccc1C(C)CCC(C)C` (stereo not shown) [Example I-36] the value was 3.76.
With `C=C(c1ccccc1NC(=O)c1c(C)nn(C)c1F)C1CCCCC1` [Example I-9], the chromatographic logP came to 4.36.
Consider `Cc1nn(C)c(F)c1C(=O)Nc1ccccc1C(C)CC1CCCCC1` (stereo not shown) [Example I-45], for which the chromatographic logP was 4.2.
Same read-out and setting: to `Cc1nn(C)c(F)c1C(=O)Nc1ccccc1I` [Example V-1, 5-fluoro-N-(2-iodophenyl)-1,3-dimethyl-1H-pyrazol-4-carboxamide] belongs 2.44; to `CCCC(C)c1cc(F)ccc1NC(=O)c1c(C)nn(C)c1F` (stereo not shown) [Example I-43], 3.05.
The same measure, in the same setting: for `Cc1nn(C)c(F)c1C(=O)Nc1c(F)cccc1C(C)CC(C)C` (stereo not shown) [Example I-44] the value was 3.16; for `CCC(CC(C)C)c1ccccc1NC(=O)c1c(C)nn(C)c1F` (stereo not shown) [Example I-28], 3.73; for `CCCCC(c1ccccc1NC(=O)c1c(C)nn(C)c1F)C(C)C` (stereo not shown) [Example I-39], 4.24.
The same measure, in the same setting: to `Cc1nn(C)c(F)c1C(=O)Nc1ccccc1C(C)(F)CC(C)C` (stereo not shown) [Example I-49] belongs 3.47.
For `C/C=C(\CC)c1ccccc1NC(=O)c1c(C)nn(C)c1F` [Example I-24], the chromatographic logP came to 3.45. This chromatographic logP and that of the molecule before are within 0.2 log units of each other.
Regarding `Cc1nn(C)c(F)c1C(=O)Nc1ccccc1C(C)(F)CCCCCl` (stereo not shown) [Example I-47], the chromatographic logP is 4.01.
On the same count and under the same terms, for `C=C(C)c1ccccc1NC(=O)c1c(C)nn(C)c1F` [Example I-23] the value was 2.57; for `Cc1nn(C)c(F)c1C(=O)Nc1c(C(C)CC(C)C)cccc1C(C)CC(C)C` (stereo not shown) [Example I-54], 4.9; for `CCC(C)C(C)c1ccccc1NC(=O)c1c(C)nn(C)c1F` (stereo not shown) [Example I-40], 3.28.
On the same count and under the same terms, for `Cc1nn(C)c(F)c1C(=O)Nc1ccccc1C(C)(O)C(C)C` (stereo not shown) [IV-5] the value was 2.41.
The same measure, in the same setting: for `Cc1nn(C)c(F)c1C(=O)Nc1ccccc1C(C)(F)C(C)C` (stereo not shown) [Example I-46] the value was 3.09.
In the case of `Cc1nn(C)c(F)c1C(=O)Nc1ccccc1C(C)CC1CCCC1` (stereo not shown) [Example I-27], the chromatographic logP was determined as 3.82.
In turn, `C=C(c1ccccc1NC(=O)c1c(C)nn(C)c1F)C(C)C` [Example I-10] had a chromatographic logP of 3.37.
On the same count and under the same terms, for `CCCC(CC)c1ccccc1NC(=O)c1c(C)nn(C)c1F` (stereo not shown) [Example I-32] the value was 3.42; for `CCC(C)CC(C)c1ccccc1NC(=O)c1c(C)nn(C)c1F` (stereo not shown) [Example I-26], 3.67.
Same read-out and setting: for `CCCCCC(C)c1ccccc1NC(=O)c1c(C)nn(C)c1F` (stereo not shown) [Example I-22] the value was 3.83.
In the case of `CCCC(C)CC(C)c1ccccc1NC(=O)c1c(C)nn(C)c1F` (stereo not shown) [Example I-35], the chromatographic logP was 4.11.
The molecule `CCCC/C=C(\C)c1ccccc1NC(=O)c1c(C)nn(C)c1F` [Example 5, 5-fluoro-1,3-dimethyl-N-[2-(1-methyl-1-hexenyl)phenyl]-1H-pyrazol-4-carboxamide] displayed a chromatographic logP of 4.36.
Take `Cc1nn(C)c(F)c1C(=O)Nc1ccccc1C#CCC1CCCCC1` [Example I-52]: the chromatographic logP came to 5.08.
Still for that read-out and setting: to `CC(C)=CC(C)CCC(C)c1ccccc1NC(=O)c1c(C)nn(C)c1F` (stereo not shown) [Example I-37] belongs 4.49; to `Cc1nn(C)c(F)c1C(=O)Nc1ccc(Cl)cc1C(C)CC(C)C` (stereo not shown) [Example I-25], 3.82.
As to `Cc1nn(C)c(F)c1C(=O)Nc1ccccc1C(C)CCCC(C)C` (stereo not shown) [Example I-34], the chromatographic logP amounted to 4.22.
The molecule `Cc1nn(C)c(F)c1C(=O)Nc1ccccc1C(C)(O)C1CCCCC1` (stereo not shown) [IV-4] registered a chromatographic logP of 3.1.
In turn, `Cc1nn(C)c(F)c1C(=O)Nc1ccc(Cl)cc1C(C)C(C)C` (stereo not shown) [Example I-19] displayed a chromatographic logP of 3.43.
Same read-out and setting: to `Cc1nn(C)c(F)c1C(=O)Nc1ccccc1C(C)C(C)C` (stereo not shown) [Example I-18] belongs 2.92; to `CCC(CC)c1ccccc1NC(=O)c1c(C)nn(C)c1F` [Example 2, N-[2-(1-ethylpropyl)phenyl]-5-fluoro-1,3-dimethyl-1H-pyrazol-4-carboxamide], 3.01; to `CCCC(C)c1ccccc1NC(=O)c1c(C)nn(C)c1F` (stereo not shown) [Example I-17], 3.01.
Molecule `Cc1nn(C)c(F)c1C(=O)Nc1ccc(F)cc1C(C)CC(C)C` (stereo not shown) [Example I-41] yielded a chromatographic logP of 3.32.
`CCCCCCCCC(C)c1ccccc1NC(=O)c1c(C)nn(C)c1F` (stereo not shown) [Example I-30] had a chromatographic logP of 5.29.
For the molecule `Cc1nn(C)c(F)c1C(=O)Nc1ccccc1C(C)(O)CC(C)C` (stereo not shown) [IV-6], the chromatographic logP worked out at 2.68.
Still for that read-out and setting: to `CCC(C)C(CC)c1ccccc1NC(=O)c1c(C)nn(C)c1F` (stereo not shown) [Example I-29] belongs 3.74; to `CCC(O)(CC)c1ccccc1NC(=O)c1c(C)nn(C)c1F` [IV-1, N-[2-(1-ethyl-1-hydroxypropyl)phenyl]-5-fluoro-1,3-dimethyl-1H-pyrazol-4-carboxamide], 2.47.
Same read-out and setting: to `Cc1nn(C)c(F)c1C(=O)Nc1ccccc1C#CC(C)C` [Example I-53] belongs 3.59; to `CCCCC(CC)c1ccccc1NC(=O)c1c(C)nn(C)c1F` (stereo not shown) [Example I-31], 3.85.
The molecule `CCC(O)(CC(C)C)c1ccccc1NC(=O)c1c(C)nn(C)c1F` (stereo not shown) [IV-13] had a chromatographic logP of 3.11.
On the same count and under the same terms, for `C=C(c1cc(Cl)ccc1NC(=O)c1c(C)nn(C)c1F)C(C)C` [Example I-16] the value was 4.11; for `CCC(C)C(C)(F)c1ccccc1NC(=O)c1c(C)nn(C)c1F` (stereo not shown) [Example I-48], 3.44; for `CC(=O)c1ccccc1NC(=O)c1c(C)nn(C)c1F` [VIII-1, N-(2-acetylphenyl)-5-fluoro-1,3-dimethyl-1H-pyrazol-4-carboxamide], 2.15.
In turn, `CCC(c1ccccc1NC(=O)c1c(C)nn(C)c1F)C1CCCCC1` (stereo not shown) [Example I-33] yielded a chromatographic logP of 4.34.
With `Cc1nn(C)c(F)c1C(=O)Nc1ccc(Cl)cc1C(C)(O)C(C)C` (stereo not shown) [IV-12], the chromatographic logP was found to be 2.99.
For the molecule `Cc1nn(C)c(F)c1C(=O)Nc1ccccc1C(C)CC(C)C` (stereo not shown) [Example I-21], the chromatographic logP was 3.26.

A further series deals with Altemaria solani. The series can be described thus: Alternaria test (tomato)/protective. The series is classed as in vivo. The settings on record: protective, application rate 750 g/ha, evaluation 7 days after inoculation. As for the experimental part: (§1) To produce a suitable preparation of active compound, 1 part by weight of active compound is mixed with the stated amounts of solvent and emulsifier, and the concentrate is diluted with water to the desired concentration.
To test for protective activity, young tomato plants are sprayed with the preparation of active compound at the stated application rate. 1 day after the treatment, the plants are inoculated with a spore suspension of Altemaria solani and then remain at 100% rel. humidity and 20° C. for 24 h. The plants then remain at 96% rel. atmospheric humidity and a temperature of 20° C.
Evaluation was carried out 7 days after the inoculation. 0% means an efficacy which corresponds to that of the control, whereas an efficacy of 100% means that no infection is observed.
Molecule `CCCC(C)c1ccccc1NC(=O)c1c(C)nn(C)c1F` (stereo not shown) [drawing 101] showed an Efficacy in % of 95%.
Turning to `Cc1nn(C)c(F)c1C(=O)Nc1ccccc1C(C)CC(C)C` (stereo not shown) [drawing 103], the Efficacy in % is on record as 100%.
On to `Cc1nn(C)c(F)c1C(=O)Nc1ccccc1C(C)C(C)C` (stereo not shown) [drawing 102], for which the Efficacy in % is 95%.

The subject of another series is Pyrenophora teres. The experiment in a line: Pyrenophora teres test (barley)/protective. The series is classed as in vivo. The settings on record: protective, application rate 250 g/ha, evaluation 7 days after inoculation. How it is done:
To produce a suitable preparation of active compound, 1 part by weight of active compound is mixed with the stated amount of solvent and emulsifier, and the concentrate is diluted with water to the desired concentration.
To test for protective activity, young plants are sprayed with the preparation of active compound at the stated application rate. After the spray coating has dried on, the plants are sprayed with a conidia suspension of Pyrenophora teres. The plants remain in an incubation cabin at 20° C. and 100% relative atmospheric humidity for 48 hours.
The plants are then placed in a greenhouse at a temperature of about 20° C. and a relative atmospheric humidity of about 80%.
Evaluation is carried out 7 days after the inoculation. 0% means an efficacy which corresponds to that of the control, whereas an efficacy of 100% means that no infection is observed.
The molecule `Cc1nn(C)c(F)c1C(=O)Nc1ccccc1C(C)C(C)C` (stereo not shown) [drawing 96] gave an Efficacy in % of 100%.

The test system of a further series is Podosphaera leucotricha. The series can be described thus: Podosphaera test (apple)/protective. Particulars: protective, application rate 100 g/ha, evaluation 10 days after inoculation. The series is classed as in vivo. As for the experimental part: as §1
To test for protective activity, young plants are sprayed with the preparation of active compound at the stated application rate. After the spray coating has dried on, the plants are inoculated with an aqueous spore suspension of the apple mildew pathogen Podosphaera leucotricha. The plants are then placed in a greenhouse at about 23° C. and a relative atmospheric humidity of about 70%.
Evaluation is carried out 10 days after the inoculation. 0% means an efficacy which corresponds to that of the control, whereas an efficacy of 100% means that no infection is observed.
For `Cc1nn(C)c(F)c1C(=O)Nc1ccccc1C(C)C(C)C` (stereo not shown) [drawing 99], the Efficacy in % came to 100%.
On the same count and under the same terms, to `C=C(c1ccccc1NC(=O)c1c(C)nn(C)c1F)C(C)C` [drawing 97] belongs 90%; to `CCCC(C)c1ccccc1NC(=O)c1c(C)nn(C)c1F` (stereo not shown) [drawing 98], 100%; to `Cc1nn(C)c(F)c1C(=O)Nc1ccc(Cl)cc1C(C)C(C)C` (stereo not shown) [drawing 100], 100%.
